Common to all, as to details: method of the corresponding examples
For test [1], the system named is human promyelocytic leukemia cells HL-60. The test can be described thus: MTT cell growth inhibition, optically active cyclopentenones. It is filed as cell-based. Here is the method:
An ethanolic solution (1 mg/ml) of each of the (-)- and (+) -cyclopentenoneobtained in Example 16 was diluted with a 75% aqueous ethanol solution to an extent of 2, 4, 8, 16, 32, 64, 128, 256, 512, 1024 and 2048-fold and each 5 μl of them was charged in each of the wells of a 96-well microtiter plate followed by drying with air. An RPMI 1640 medium (100 μl) containing 10% fetal bovine serum containing 5000 human promyelocytic leukemia cells HL-60 (ATCC CCL-240) was added to each well and incubated at 37° C. for 48 hours in the presence of 5% of carbon dioxide gas. After observing the morphology of the cells under an optical microscope, 10 μl of phosphate buffered saline containing 5 mg/ml of 3-(4,5-dimethylthiazol-2-yl)-2,5-diphenyltetrazolium bromide (MTT; manufactured by Sigma) thereto, an incubation was conducted for additional four hours and the growth state of the cells was observed under a microscope. Further, 100 μl of 2-propanol containing 0.04N HCl was added thereto followed by well stirring and an absorbance at 590 nm was measured and defined as the degree of cell growth.

The nature of test [2]: antibacterial activity of optically active cyclopentenones. It is filed as cell-based.
In test [3] the test system is HL-60 cells. As to the kind of experiment: apoptosis-inducing activity to HL-60 cells. The test is classed as cell-based, human. Here is the method: (2) The cyclopentenone prepared in Example 2-(1) was used for preparing aqueous solutions of the cyclopentenone in the concentrations of 2.86 mM, 955 μM, 318 μM, 106 μM, 35 μM, 12 μM and […]. Then said heat-treated substance was adjusted to pH 7.0 with NaOH and the apoptosis-inducing activity to HL-60 cells was measured as follows.
To 1.35 ml of this suspension was added 0.15 ml of the above-mentioned cyclopentenone solution and the mixture was incubated at […] for 20 hours in the presence of 5% of carbon dioxide gas.

The test system of test [4] is HL-60 cells. The test can be described thus: cancer cell differentiation (Wright-Giemsa stain). The test is classed as cell-based, human. The procedure:
(2) To HL-60 cells was added 10^-4 μg/ml of the cyclopentenone and an incubation by the same manner as in Example 15-(1) was conducted for three days. […] The result was that the differentiated cells were around 10% in the control where no cyclopentenone was added while, in the fractions to which the cyclopentenone was added, 50% or more cells were differentiated to monocyte- or to macrophage-like cells.
The result was that the differentiated cells were around 10% in the control where no cyclopentenone was added while, in the fraction to which 0.005 μg/ml of the cyclopentenone was added, 25% or more cells were differentiated to mature bone marrow cells.

Results on 4 compounds are retold here after US6087401A, “Cyclopentenones, process for preparing the same, and the use thereof” (Takara Shuzo Co., Ltd., priority 1996, dated 2000).

In the case of `O=C1C=CC(O)C1O` (single isomer, unassigned; (+)) [(+)-cis-cyclopentenone], the cell growth inhibition result in test [1] is listed as “cell growth inhibiting activity”. Besides, the antibacterial activity entry in test [2] was “antibacterial activity”. In the test with HL-60 cells [3], the apoptosis inducing activity result is recorded as “apoptosis inducing activity”. Also, the “cancer cell differentiation inducing activity” value in the test with HL-60 cells [4] is “cancer cell differentiation inducing activity”.

On to `O=C1C=CC(O)C1O` (single isomer, unassigned; (-)) [(-)-cis-cyclopentenone], for which the cell growth inhibition result in test [1] is reported as “cell growth inhibiting activity”. The antibacterial activity result in test [2] is “antibacterial activity”. The apoptosis inducing activity result with HL-60 cells [3] was “apoptosis inducing activity”. The “cancer cell differentiation inducing activity” value in the test with HL-60 cells [4] is reported as “cancer cell differentiation inducing activity”.

Regarding `O=C1C=C[C@@H](O)[C@@H]1O` (single isomer, unassigned) [(+)-trans-cyclopentenone, (+)-trans-4,5-dihydroxy-2-cyclopenten-1-one], in test [1], the cell growth inhibition entry is listed as “cell growth inhibiting activity”. Moreover, the antibacterial activity result in test [2] is reported as “antibacterial activity”. Besides, in the test on HL-60 cells [3], the apoptosis inducing activity entry was “apoptosis inducing activity”. The “cancer cell differentiation inducing activity” value in the test with HL-60 cells [4] is “cancer cell differentiation inducing activity”.

Regarding `O=C1C=C[C@@H](O)[C@@H]1O` (single isomer, unassigned) [(-)-trans-cyclopentenone, (-)-trans-4,5-dihydroxy-2-cyclopenten-1-one], the cell growth inhibition result in test [1] is recorded as “cell growth inhibiting activity”. Also, the antibacterial activity result in test [2] is “antibacterial activity”. In addition, the apoptosis inducing activity result with HL-60 cells [3] is on record as “apoptosis inducing activity”. Also, the “cancer cell differentiation inducing activity” value with HL-60 cells [4] is recorded as “cancer cell differentiation inducing activity”.
